From PubChem BioAssay (NCI)
Where “and” joins values, the source holds several entries; their conditions need not be identical. Identical values can stand only once.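 Following 48 hours of exposure in 96-well plates, responses at five concentrations were used to interpolate endpoints linearly. The concentration for 50% growth inhibition is given as GI50. At the TGI there is no net growth.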

Key:
Assay in all cases: NCI tumour cell line growth inhibition, 48 h
U251 CNS = system: U251 CNS
SF-268 CNS = system: SF-268 CNS
CCRF-CEM leukemia = system: CCRF-CEM leukemia
CAKI-1 renal = system: CAKI-1 renal
MCF7 breast = system: MCF7 breast
NCI-H226 lung = system: NCI-H226 lung
EKVX NSCLC = system: EKVX NSCLC
SW-620 colon = system: SW-620 colon

SMILES	GI50 (U251 CNS)	TGI (U251 CNS)	GI50 (SF-268 CNS)	TGI (SF-268 CNS)	GI50 (CCRF-CEM leukemia)	TGI (CCRF-CEM leukemia)	GI50 (CAKI-1 renal)	TGI (CAKI-1 renal)	GI50 (MCF7 breast)	TGI (MCF7 breast)	GI50 (NCI-H226 lung)	TGI (NCI-H226 lung)	GI50 (EKVX NSCLC)	TGI (EKVX NSCLC)	GI50 (SW-620 colon)	TGI (SW-620 colon)
COc1cc(CCC[P+](c2ccccc2)(c2ccccc2)c2ccccc2)c(OC)c2c1OCO2	1.63 µM	17.5 µM	2.13 µM	13.1 µM	1.61 µM	> 100 µM	2.42 µM	7.18 µM	1.82 µM	12.9 µM	3.13 µM	21.3 µM	2.83 µM	35.2 µM	1.83 µM	11.4 µM
COc1ccc2c(c1)CCC1C2CC[C@@]2(C)C1CC[C@@H]2NC(=O)Cc1ccc(O)c(O)c1 (stereo partly specified)	4.94 µM	18.8 µM	7.48 µM	25.3 µM	2.86 µM	17.6 µM	8.53 µM	21.7 µM	11.2 µM	32.1 µM	10.1 µM	35.3 µM	13.5 µM	31.4 µM	6.41 µM	25 µM
CSc1ccc(C2=NN(C(C)=O)C(c3ccc(-c4cc(Cl)c(Cl)cc4Cl)o3)C2)cc1 (stereo unspecified)	16.9 µM	30.6 µM	16.3 µM	32.2 µM	21.5 µM	47 µM	19.2 µM	43.2 µM	12.5 µM	26.5 µM	13.9 µM	27.3 µM	14.9 µM	30.6 µM	18.5 µM	33.2 µM
C=C(C)[C@@H]1CC[C@]2(CO)CC[C@]3(C)[C@H](CC[C@@H]4[C@@]5(C)CCCNC(C)(C)[C@@H]5CC[C@]43C)[C@@H]12	1.65 µM	3.09 µM	1.74 µM	3.54 µM	2.07 µM	4.91 µM	1.55 µM	2.89 µM	1.29 µM	2.77 µM	1.98 µM	4.09 µM	1.55 µM	3.03 µM	1.81 µM	3.41 µM
CC1=C(C#N)C23C(=O)N(c4ccccc4)C(=O)C2=C(O)C=CC3(O)N1Cc1ccc(Cl)cc1Cl (stereo unspecified)	2.86 µM	11.3 µM	3.74 µM	16.4 µM	1.59 µM	4.28 µM	2.94 µM	12.1 µM	2.12 µM	13.3 µM	2.54 µM	9.96 µM	9.43 µM	21.3 µM	2.07 µM	4.29 µM
Nc1ncc(-c2ccc3ncnc(Nc4cccc(Cl)c4)c3c2)cn1	0.538 µM	–	0.294 µM and 1.95 µM	> 100 µM	1.85 µM	> 100 µM	0.0346 µM	–	0.186 µM	–	0.294 µM	–	–	–	–	–
CC(C)(C)OC(=O)NCC(CNC(=O)OC(C)(C)C)C(N)=O	–	> 100 µM	–	> 100 µM	–	> 100 µM	–	> 100 µM	–	> 100 µM	–	> 100 µM	–	> 100 µM	–	> 100 µM
COc1nc(N)nc2c1ncn2C1CC(O)C(CO)O1 (stereo unspecified)	–	> 100 µM	–	> 100 µM	–	> 100 µM	–	> 100 µM	–	> 100 µM	–	> 100 µM	–	> 100 µM	–	> 100 µM
Cc1cc2c(F)c(Oc3ncnc(Nc4ccc(N5C[C@@H](C)N[C@@H](C)C5)cc4)c3C#N)cc(F)c2[nH]1	1.72 µM	4.47 µM	2.07 µM	8.36 µM	1.64 µM	9.16 µM	2.99 µM	10.9 µM	1.7 µM	4.29 µM	1.39 µM	11.6 µM	3.39 µM	14.7 µM	1.83 µM	4.1 µM
Cc1ccc(OCC2CO2)c(Br)c1 (stereo unspecified)	–	32.6 µM	–	42.6 µM	–	> 100 µM	–	> 100 µM	–	34.9 µM	–	34.1 µM	–	35.8 µM	–	33 µM
COc1cc(-c2nn(-c3cccc(NC(=O)Nc4ccc(Cl)c(C(F)(F)F)c4)c3)cc2-c2ccncc2)ccc1Cl	0.985 µM	4.18 µM	1.46 µM	9.14 µM	0.979 µM	> 32.5 µM	0.992 µM	4.72 µM	0.919 µM	> 32.5 µM	1.82 µM	> 32.5 µM	–	–	1.29 µM	29.9 µM
C[C@@H]1C[C@H](N)C[C@H](c2ccncc2NC(=O)c2ccc(F)c(-c3c(F)cccc3F)n2)C1	12 µM and > 10 µM	24.7 µM and > 10 µM	10.8 µM and > 10 µM	25.3 µM and > 10 µM	–	–	7.51 µM	> 10 µM	10.8 µM and > 10 µM	25 µM and > 10 µM	–	–	4.35 µM and > 10 µM	21.1 µM and > 10 µM	11.6 µM and 9.63 µM	25.2 µM and > 10 µM
NC(=O)c1cc(N2CC2)c([N+](=O)[O-])cc1[N+](=O)[O-]	> 200 µM	> 200 µM	> 200 µM	> 200 µM	> 200 µM	> 200 µM	> 200 µM	> 200 µM	–	> 63.2 µM	> 200 µM	> 200 µM	> 200 µM	> 200 µM	> 200 µM	> 200 µM
O=C(O)/C=C/c1ccc(Oc2ccccc2C(=O)O)o1	–	> 10 µM	–	> 10 µM	–	> 10 µM	–	> 10 µM	–	> 10 µM	–	–	–	–	–	> 10 µM
CCC1=C(c2ccc(OC)cc2)C(C)(C)Oc2c1ccc(O)c2CN1CCCC1	1.48 µM	3.04 µM	8.8 µM	> 100 µM	1.86 µM	5.38 µM	2.95 µM	30.4 µM	1.57 µM	3.2 µM	2.45 µM	14.7 µM	18.6 µM	> 100 µM	1.71 µM	3.3 µM
O=C1Nc2c(Cl)cc(Cl)cc2/C1=N/N=C/c1ccco1	–	> 100 µM	–	–	–	> 100 µM	–	72.8 µM	–	> 100 µM	–	59.2 µM	–	84.9 µM	–	> 100 µM
O=[N+]([O-])c1ccc(-c2csc(N=Nc3c(O)[nH]c4ccccc34)n2)cc1	–	> 100 µM	–	–	–	–	–	39.4 µM	–	> 100 µM	–	> 100 µM	–	> 100 µM	–	> 100 µM
Cc1ccc(S(=O)(=O)ON2C(=O)c3cccc4cc([N+](=O)[O-])cc(c34)C2=O)cc1	–	> 100 µM	–	> 100 µM	–	–	–	> 100 µM	–	> 100 µM	–	> 100 µM	–	> 100 µM	–	> 100 µM
